Measured values as given in patent publication US20050014682A1 (priority 2003, published 2005).
Where two headings read alike, the source gives them in different places. Starred links: 1 amine or outer side, 2 acyl side, 3 side chain; linkers in the order of their positions; H or OH if unused. Positions of bridges follow the written chain, without caps; N, C: chain ends. Non-standard residues stand in square brackets, D forms with d. Residues, ends and D or L forms follow the SMILES beside them. Adda = CO[C@@H](Cc1ccccc1)[C@@H](C)/C=C(C)/C=C/[C@H](N[*:1])[C@H](C)C(=O)[*:2]; dAsp(3S-Me) = C[C@H](C(=O)[*:3])[C@@H](N[*:1])C(=O)[*:2]; d(γGlu) = O=C(O)[C@@H](CCC(=O)[*:2])N[*:1]; NMeDha = C=C(NC)C(=O)O

Tests used:
Akt = assay: Cell-free in vitro assay (3T3-L1 adipocyte PM/CYT/LDM fractions), Akt phosphorylation by phospho-Akt immunoblot; type: biochemical; conditions: for ability of phosphatidylinositol lipids to stimulate Thr308 and Ser473 phosphorylation of Akt: data not shown
PDK2 = PDK2 activity in in vitro reactions at different chloride concentrations; type: biochemical
[1] = 10 μM PIP3 added to CYT alone, non-insulin treated cells, 15 min at 37° C.
[2] = 10 μM PIP3 added to CYT and LDM, 15 min at 37° C.

Cl [chloride]
PIP3-induced Ser473 phosphorylation (Akt): completely inhibited | insulin-stimulated phosphorylation of both Thr308 and Ser473 (Akt; 145 mM chloride (140 mM KCl/5 mM NaCl or 145 mM NaCl), PM and CYT): almost completely suppressed | PIP3-stimulated Thr308 phosphorylation (Akt; high chloride (145 mM), 10 μM PIP3, PM(−ins) and CYT): severely inhibited | chloride concentration that completely inhibits PDK2 activity (PDK2): > 100 mM

O[C@@H](CS)[C@@H](O)CS [DTT]
signal for both Akt phosphorylation sites in reactions containing PM(+ins) (Akt; 15 min at 37° C.): appeared to inhibit the phospho-Akt signal in most cases

phosphatidylinositol(3,4,5)P3 [PIP3]
Ser473 phosphorylation of Akt (Akt; [1]): occurred only marginally | Thr308 phosphorylation of Akt (Akt; [1]): efficient phosphorylation | Ser473 signal (Akt; [2]): robust | Thr308 signal relative to reaction containing CYT alone (Akt; [2]): not further enhanced | ability of phosphatidylinositol lipids to stimulate Thr308 and Ser473 phosphorylation of Akt (Akt): could stimulate

phosphatidylinositol(3,4)P2 [PI (3,4)P2]
ability of phosphatidylinositol lipids to stimulate Thr308 and Ser473 phosphorylation of Akt (Akt): could stimulate

C=C1C(=O)N[C@H](C)C(=O)N[C@@H](CC(C)C)C(=O)N[C@@H](C(=O)O)[C@H](C)C(=O)N[C@@H](CCCNC(=N)N)C(=O)N[C@@H](/C=C/C(C)=C/[C@H](C)[C@H](Cc2ccccc2)OC)[C@H](C)C(=O)N[C@@H](C(=O)O)CCC(=O)N1C [Microcystin, microcystin-LR] (R[Adda][d(γGlu)][NMeDha][dA]L[dAsp(3S-Me)]-OH; lactam N-7)
control (basal) phospho-Akt signal in reactions containing PM(−ins) (Akt): elevated the basal signal only for the Ser473 site | signal for both Akt phosphorylation sites in reactions containing PM(+ins) (Akt): increased the insulin-stimulated signal
